The values below are quoted from earlier work in patent US20160081962A1, “N[…] DIETARY S[…] ACIDS AND NITRITE” (NITROMEGA CORP., priority 2013, published 2016).

For this series the following is noted: exogenous NO3^− intake 10 mg/kg in humans; in 30 min.

Regarding `O=[N+]([O-])O` [NO3^−, nitrate], the “increase of plasma NO2^− concentration” value is “up to four- to five-fold”.
